Columns and labels:
Test in all cases: relative viability (nuclei count vs DMSO), 5 days (fraction); higher = more cells survive
[1] = compound: Cn1cc(-c2cnn3c(N)c(Br)c([C@@H]4CCCNC4)nc23)cn1 + CC(C)C[C@H](NC(=O)[C@H](Cc1ccccc1)NC(=O)c1cnccn1)B(O)O [Bortezomib] (partner 0.002 µM)
How it was run: (§1)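 Relative viability equals treated-well nuclei counts divided by vehicle-well nuclei counts. Counts came from 4× images of lung cancer cell lines grown in 1536-well plates for 5 days after pin-tool dosing on the day after seeding. Dosing used one drug alone or a fixed anchor-drug dose plus five library-drug doses (not always all listed) in √10 steps, and values are medians of duplicate plates.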

[2] = compound: Cn1cc(-c2cnn3c(N)c(Br)c([C@@H]4CCCNC4)nc23)cn1 + Cc1nc(Nc2ncc(C(=O)Nc3c(C)cccc3Cl)s2)cc(N2CCN(CCO)CC2)n1 [Dasatinib] (partner 0.075 µM)
How it was run: as §1

[3] = compound: Cn1cc(-c2cnn3c(N)c(Br)c([C@@H]4CCCNC4)nc23)cn1 + CCNC(=O)c1noc(-c2cc(C(C)C)c(O)cc2O)c1-c1ccc(CN2CCOCC2)cc1 [Luminespib] (partner 0.01 µM)
How it was run: as §1

[4] = compound: Cn1cc(-c2cnn3c(N)c(Br)c([C@@H]4CCCNC4)nc23)cn1 + CC(=O)c1c(C)c2cnc(Nc3ccc(N4CCNCC4)cn3)nc2n(C2CCCC2)c1=O [Palbociclib] (partner 0.5 µM)
How it was run: as §1

Cell Line | relative viability ([1]; first compound 0.05 µM) | relative viability ([1]; first compound 0.1581 µM) | relative viability ([1]; first compound 0.5 µM) | relative viability ([1]; first compound 1.581 µM) | relative viability ([1]; first compound 5 µM) | relative viability ([2]; first compound 0.05 µM) | relative viability ([2]; first compound 0.1581 µM) | relative viability ([2]; first compound 0.5 µM) | relative viability ([2]; first compound 1.581 µM) | relative viability ([2]; first compound 5 µM) | relative viability ([3]; first compound 0.05 µM) | relative viability ([3]; first compound 0.1581 µM) | relative viability ([3]; first compound 0.5 µM) | relative viability ([3]; first compound 1.581 µM) | relative viability ([3]; first compound 5 µM) | relative viability ([4]; first compound 0.05 µM) | relative viability ([4]; first compound 0.1581 µM) | relative viability ([4]; first compound 0.5 µM) | relative viability ([4]; first compound 1.581 µM) | relative viability ([4]; first compound 5 µM)
NCI-H2126 | 1.1 | 1.22 | 1.15 | 1.02 | 1.14 | 0.581 | 0.58 | 0.568 | 0.506 | 0.488 | 0.755 | 0.964 | 0.983 | 0.608 | 0.595 | 0.338 | 0.332 | 0.363 | 0.347 | 0.408
LXF-289 | 1.01 | 1.09 | 0.978 | 0.88 | 0.994 | 0.216 | 0.209 | 0.181 | 0.221 | 0.209 | 0.729 | 0.803 | 0.645 | 0.648 | 0.55 | 0.618 | 0.663 | 0.585 | 0.555 | 0.654
NCI-H460 | 0.993 | 1.74 | 0.792 | 0.401 | 0.529 | 0.533 | 0.437 | 0.483 | 0.317 | 0.144 | 0.0336 | 0.0269 | 0.0266 | 0.0285 | 0.0325 | 0.227 | 0.144 | 0.0866 | 0.0886 | 0.0189
NCI-H2009 | 1.01 | 1.06 | 0.972 | 0.834 | 0.826 | 0.3 | 0.291 | 0.257 | 0.219 | 0.216 | 1.04 | 1.09 | 0.98 | 0.962 | 0.889 | 0.237 | 0.177 | 0.185 | 0.18 | 0.113

Source: the supplement of paper PMC10307832
